Experimental data as given in patent US12570648B2, “6,7-dihydro-5H-pyrido[2,3-c]pyridazine derivatives and related compounds as Bcl-xL protein inhibitors and pro-apoptotic agents for treating cancer” (LES LABORATOIRES SERVIER, priority 2019, dated 2026).
pIC50, pKi: −log10 of the molar value.

How the values were obtained:
MOLT-4 cells = experiment: MOLT-4 cell viability using MTT assay; type: cell-based; conditions: 48 h exposure
Protocol: MTT colorimetric assay is based on the mitochondrial reduction of tetrazolium salt by living cells.
Cells were cultured at 37° C. in a humidified atmosphere containing 5% CO2. […] At the end of incubation time, 15 μL of MTT solution (5 mg/ml) were added per well and the cells were incubated for another 4 h. […] IC50s were calculated using standard four-parametric curve fitting.

[1] = target: His-His-(EK)-hsBCLXL(2-197)[N197C] (Homo sapiens (Human), UniProt Q07817, N197C); experiment: Fluorescence quenching assay; type: binding; conditions: 1 nM Cy5-labelled protein, 400 nM PUMA peptide, 2 hours at 23° C.; KI determined from IC50
Source text: Fluorescence quenching assay measures the change in fluorescence intensity of C-terminally Cy5-labelled BCL-xL protein, His-His-(EK)-hsBCLXL(2-197)[N197C] (UniProtKB®
which is linked in C-terminal region to the amino acid X which corresponds to a cysteine labelled on the sulfur with Sulfo-Cyanine5 from Lumiprobe GmbH catalogue number 13380, upon binding of a C-terminally labelled peptide derived from PUMA (UniProtKB® primary accession number Q9BXH1) having an aminoacid sequence (SEQ ID:04): [[…]] which is linked in C-terminal region to the amino acid X′ where X′ is cysteine labelled on the sulfur with TQ5WS from AAT Bioquest catalogue number 2079.
The addition of a compound which binds competitively to the same site as the peptide will result in an increase in the fluorescence intensity of the protein due to displacement of the fluorescence quencher.
An 11-point serial dilution of each compound was prepared in DMSO, the final buffer conditions were 10 mM 4-(2-hydroxyethyl)-1-piperazineethanesulfonic acid [HEPES], 150 mM NaCl, 0.05% Tween 20, pH 7.4 and 5% DMSO. The final protein concentration in the assay was 1 nM with the peptide present at 400 nM. The experiments were incubated for 2 hours at 23° C. before fluorescence intensity was measured on a Biotek SynergyNeo plate reader (Excitation 620 nm, emission 680 nm). […] The K1 values were determined from the IC50 values according to Cer et al, Nucleic Acids Res, 2009, Jul. 1; 37 (WebServer issue): W441-W445.

His-His-(EK)-hsBCLXL(2-197)[N197C], sequence (Q07817 2-197 N197C): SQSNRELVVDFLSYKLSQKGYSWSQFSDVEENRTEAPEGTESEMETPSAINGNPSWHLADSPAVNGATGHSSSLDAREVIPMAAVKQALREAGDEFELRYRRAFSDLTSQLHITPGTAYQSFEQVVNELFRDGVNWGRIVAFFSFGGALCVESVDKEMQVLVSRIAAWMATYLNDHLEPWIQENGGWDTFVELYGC

Row | pIC50 (MOLT-4 cells; Homo sapiens, MOLT-4, 48 h) | pKi [1] | pIC50 (MOLT-4 cells) | SMILES
1 | 9.21 | 11.82 | – | CNCCOC12CC3(C)CC(C)(CC(Cn4ncc(-c5ccc(N6CCCc7c6nnc(Nc6nc8ccccc8s6)c7C)nc5C(=O)O)c4C)(C3)C1)C2 [Example 94, 6-{3-[(1,3-benzothiazol-2-yl)amino]-4-methyl-6,7-dihydropyrido[2,3-c]pyridazin-8(5H)-yl}-3-[1-({3,5-dimethyl-7-[2-(methylamino)ethoxy]adamantan-1-yl}methyl)-5-methyl-1H-pyrazol-4-yl]pyridine-2-carboxylic acid]
2 | 9.55 | 11.74 | – | Cc1c(Nc2nc3ccccc3s2)nnc2c1CCCN2c1ccc(-c2cnn(CC34CC5(C)CC(C)(C3)CC(OCCN3CCN(C)CC3)(C5)C4)c2C)c(C(=O)O)n1 [Example 128, 6-[3-(1,3-benzothiazol-2-ylamino)-4-methyl-6,7-dihydro-5H-pyrido[2,3-c]pyridazin-8-yl]-3-[1-[[3,5-dimethyl-7-[2-(4-methylpiperazin-1-yl)ethoxy]-1-adamantyl]methyl]-5-methyl-pyrazol-4-yl]pyridine-2-carboxylic acid]
3 | 9.56 | 11.23 | – | Cc1c(Nc2nc3ccccc3s2)nnc2c1CCCN2c1nc(C(=O)O)c(CCCOc2ccc(C#CCN(C)CC[C@H](O)CO)cc2F)s1 [Example 148, 2-[3-(1,3-benzothiazol-2-ylamino)-4-methyl-6,7-dihydro-5H-pyrido[2,3-c]pyridazin-8-yl]-5-[3-[4-[3-[[(3S)-3,4-dihydroxybutyl]-methyl-amino]prop-1-ynyl]-2-fluoro-phenoxy]propyl]thiazole-4-carboxylic acid]
4 | 9.76 | 10.82 | – | Cc1c(Nc2nc3ccccc3s2)nnc2c1CCCN2c1nc(C(=O)O)c(CCCOc2ccc(C#CC(C)(C)N3CCCC3)cc2F)s1 [Example 81, 2-[3-(1,3-Benzothiazol-2-ylamino)-4-methyl-6,7-dihydro-5H-pyrido[2,3-c]pyridazin-8-yl]-5-[3-[2-fluoro-4-(3-methyl-3-pyrrolidin-1-yl-but-1-ynyl)phenoxy]propyl]thiazole-4-carboxylic acid]
5 | 8.08 | 11.66 | – | Cc1c(Nc2nc3ccccc3s2)nnc2c1CCCN2c1ccc(-c2cnn(CC34CC5(C)CC(C)(C3)CC(OCCNCCS(=O)(=O)O)(C5)C4)c2C)c(C(=O)O)n1 [Example 96, 6-{3-[(1,3-benzothiazol-2-yl)amino]-4-methyl-6,7-dihydropyrido[2,3-c]pyridazin-8(5H)-yl}-3-{1-[(3,5-dimethyl-7-{2-[(2-sulfoethyl)amino]ethoxy}adamantan-1-yl)methyl]-5-methyl-1H-pyrazol-4-yl}pyridine-2-carboxylic acid]
6 | 9.24 | 11.19 | – | CNCC#Cc1ccc(OCCCc2sc(N3CCCc4c3nnc(Nc3nc5ccccc5s3)c4C)nc2C(=O)O)cc1 [Example 80, 2-[3-(1,3-Benzothiazol-2-ylamino)-4-methyl-6,7-dihydro-5H-pyrido[2,3-c]pyridazin-8-yl]-5-[3-[4-[3-(methylamino)prop-1-ynyl]phenoxy]propyl]thiazole-4-carboxylic acid]
7 | 8.52 | 11.74 | – | Cc1c(Nc2nc3ccccc3s2)nnc2c1CCCN2c1ccc(-c2cnn(CC34CC5(C)CC(C)(C3)CC(OCCNC(CO)CO)(C5)C4)c2C)c(C(=O)O)n1 [Example 135, 6-[3-(1,3-benzothiazol-2-ylamino)-4-methyl-6,7-dihydro-5H-pyrido[2,3-c]pyridazin-8-yl]-3-[1-[[3-[2-[[2-hydroxy-1-(hydroxymethyl)ethyl]amino]ethoxy]-5,7-dimethyl-1-adamantyl]methyl]-5-methyl-pyrazol-4-yl]pyridine-2-carboxylic acid]
8 | 8.90 | 11.85 | – | Cc1c(Nc2nc3ccccc3s2)nnc2c1CCCN2c1ccc(-c2cnn(CC34CC5(C)CC(C)(C3)CC(OCCNCCOCCO)(C5)C4)c2C)c(C(=O)O)n1 [Example 136, 6-[3-(1,3-benzothiazol-2-ylamino)-4-methyl-6,7-dihydro-5H-pyrido[2,3-c]pyridazin-8-yl]-3-[1-[[3-[2-[2-(2-hydroxyethoxy)ethylamino]ethoxy]-5,7-dimethyl-1-adamantyl]methyl]-5-methyl-pyrazol-4-yl]pyridine-2-carboxylic acid]
9 | 8.71 | 11.64 | – | Cc1c(Nc2nc3ccccc3s2)nnc2c1CCCN2c1ccc(-c2cnn(CC34CC5(C)CC(C)(C3)CC(OCCN(C)CC[C@@H](O)CO)(C5)C4)c2C)c(C(=O)O)n1 [Example 130, 6-[3-(1,3-benzothiazol-2-ylamino)-4-methyl-6,7-dihydro-5H-pyrido[2,3-c]pyridazin-8-yl]-3-[1-[[3-[2-[[(3R)-3,4-dihydroxybutyl]-methyl-amino]ethoxy]-5,7-dimethyl-1-adamantyl]methyl]-5-methyl-pyrazol-4-yl]pyridine-2-carboxylic acid]
10 | – | 11.77 | 8.34 | Cc1c(Nc2nc3ccccc3s2)nnc2c1CCCN2c1ccc(-c2cnn(CC34CC5(C)CC(C)(C3)CC(OCCNCCC(O)CO)(C5)C4)c2C)c(C(=O)O)n1 (stereo in doubt) [Example 92, 6-{3-[(1,3-benzothiazol-2-yl)amino]-4-methyl-6,7-dihydropyrido[2,3-c]pyridazin-8(5H)-yl}-3-(1-{[3-(2-{[(3S)-3,4-dihydroxybutyl]amino}ethoxy)-5,7-dimethyladamantan-1-yl]methyl}-5-methyl-1H-pyrazol-4-yl)pyridine-2-carboxylic acid]
11 | 9.37 | 11.57 | – | Cc1c(Nc2nc3ccccc3s2)nnc2c1CCCN2c1ccc(-c2cnn(CC34CC5(C)CC(C)(CC(CCCN6CCCC6)(C5)C3)C4)c2C)c(C(=O)O)n1 [Example 166, 6-[3-(1,3-benzothiazol-2-ylamino)-4-methyl-6,7-dihydro-5H-pyrido[2,3-c]pyridazin-8-yl]-3-[1-[[3,5-dimethyl-7-(3-pyrrolidin-1-ylpropyl)-1-adamantyl]methyl]-5-methyl-pyrazol-4-yl]pyridine-2-carboxylic acid]
12 | 8.61 | 10.64 | – | Cc1c(Nc2nc3ccccc3s2)nnc2c1CCCN2c1nc(C(=O)O)c(CCCOc2cc(C#CCN(C)C)ccc2F)s1 [Example 78, 2-[3-(1,3-Benzothiazol-2-ylamino)-4-methyl-6,7-dihydro-5H-pyrido[2,3-c]pyridazin-8-yl]-5-[3-[5-[3-(dimethylamino)prop-1-ynyl]-2-fluoro-phenoxy]propyl]thiazole-4-carboxylic acid]
13 | 9.86 | 11.68 | – | Cc1c(Nc2nc3ccccc3s2)nnc2c1CCCN2c1ccc(-c2cnn(CC34CC5(C)CC(C)(C3)CC(OCCN3CCCC3)(C5)C4)c2C)c(C(=O)O)n1 [Example 127, 6-[3-(1,3-benzothiazol-2-ylamino)-4-methyl-6,7-dihydro-5H-pyrido[2,3-c]pyridazin-8-yl]-3-[1-[[3,5-dimethyl-7-(2-pyrrolidin-1-ylethoxy)-1-adamantyl]methyl]-5-methyl-pyrazol-4-yl]pyridine-2-carboxylic acid]
14 | 9.74 | 11.00 | – | CCN(C)CC#Cc1ccc(OCCCc2sc(N3CCCc4c3nnc(Nc3nc5ccccc5s3)c4C)nc2C(=O)O)c(F)c1 [Example 88, 2-[3-(1,3-Benzothiazol-2-ylamino)-4-methyl-6,7-dihydro-5H-pyrido[2,3-c]pyridazin-8-yl]-5-[3-[4-[3-[ethyl(methyl)amino]prop-1-ynyl]-2-fluoro-phenoxy]propyl]thiazole-4-carboxylic acid]
15 | 9.00 | 11.28 | – | Cc1c(Nc2nc3ccccc3s2)nnc2c1CCCN2c1nc(C(=O)O)c(CCCOc2ccc(C#CCN3CCNCC3)cc2F)s1 [Example 79, 2-[3-(1,3-Benzothiazol-2-ylamino)-4-methyl-6,7-dihydro-5H-pyrido[2,3-c]pyridazin-8-yl]-5-[3-[2-fluoro-4-(3-piperazin-1-ylprop-1-ynyl)phenoxy]propyl]thiazole-4-carboxylic acid]
16 | 8.77 | 11.68 | – | Cc1c(Nc2nc3ccccc3s2)nnc2c1CCCN2c1ccc(-c2cnn(CC34CC5(C)CC(C)(C3)CC(OCCNCC(CO)CO)(C5)C4)c2C)c(C(=O)O)n1 [Example 133, 6-[3-(1,3-benzothiazol-2-ylamino)-4-methyl-6,7-dihydro-5H-pyrido[2,3-c]pyridazin-8-yl]-3-[1-[[3-[2-[[3-hydroxy-2-(hydroxymethyl)propyl]amino]ethoxy]-5,7-dimethyl-1-adamantyl]methyl]-5-methyl-pyrazol-4-yl]pyridine-2-carboxylic acid]
